This series is described as follows: activity coefficient (dimensionless); of the first substance listed, at infinite dilution; xn = mol fraction of the nth substance listed. The note with it: Liquid, Chromatography, x1 = 0.

± gives the expanded uncertainty stated by the source.

As for `CCO` [ethanol] + CCCC[N+](C)(C)C.O=S(=O)([N-]S(=O)(=O)C(F)(F)F)C(F)(F)F, the activity coefficient is, setting by setting: (312.25 K) 1.94 ± 0.13; (322.85 K) 1.73 ± 0.12; (333.25 K) 1.57 ± 0.1; (343.65 K) 1.41 ± 0.09.

Consider `CCc1ccccc1` [ethylbenzene] + CCCC[N+](C)(C)C.O=S(=O)([N-]S(=O)(=O)C(F)(F)F)C(F)(F)F, for which the activity coefficient reads like this: (322.85 K) 2.79 ± 0.19; (333.25 K) 2.76 ± 0.19; (343.75 K) 2.65 ± 0.18; (354.15 K) 2.6 ± 0.18.

In the case of `CCCCCCCO` [heptan-1-ol] + CCCC[N+](C)(C)C.O=S(=O)([N-]S(=O)(=O)C(F)(F)F)C(F)(F)F, the activity coefficient (354.05 K) worked out at 3.47 ± 0.24, the activity coefficient (364.63 K) was 3.11 ± 0.21, the activity coefficient (375.05 K) is 2.81 ± 0.19 and the activity coefficient (386.6 K) was determined as 2.58 ± 0.18.

In the case of `CCCCCCC=O` [heptanal] + CCCC[N+](C)(C)C.O=S(=O)([N-]S(=O)(=O)C(F)(F)F)C(F)(F)F, the activity coefficient (354.15 K) is 1.84 ± 0.12; the activity coefficient (364.65 K) turned out to be 1.73 ± 0.12; the activity coefficient (374.95 K) stood at 1.6 ± 0.11; the activity coefficient (385.45 K) was 1.48 ± 0.1; the activity coefficient (395.95 K) amounted to 1.36 ± 0.09.

Consider `CCCCCCC` [heptane] + CCCC[N+](C)(C)C.O=S(=O)([N-]S(=O)(=O)C(F)(F)F)C(F)(F)F, for which the activity coefficient stood at 30.2 ± 2.1 (301.62 K), 27.7 ± 1.9 (312.15 K), 25.6 ± 1.8 (322.75 K) and 23.4 ± 1.6 (333.25 K).

`C=CCCCC` [hex-1-ene] + CCCC[N+](C)(C)C.O=S(=O)([N-]S(=O)(=O)C(F)(F)F)C(F)(F)F: the activity coefficient was 10.2 ± 0.7 (305.85 K); 9.81 ± 0.67 (312.35 K); 9.46 ± 0.65 (322.55 K); 8.63 ± 0.59 (343.65 K); 7.93 ± 0.54 (364.55 K).

With `CCCCCCO` [hexan-1-ol] + CCCC[N+](C)(C)C.O=S(=O)([N-]S(=O)(=O)C(F)(F)F)C(F)(F)F, the activity coefficient was found to be 4.02 ± 0.27 (343.65 K), 3.58 ± 0.24 (354.05 K), 3.24 ± 0.22 (364.45 K) and 2.67 ± 0.18 (385.55 K).

In the case of `CCCCCC=O` [hexanal] + CCCC[N+](C)(C)C.O=S(=O)([N-]S(=O)(=O)C(F)(F)F)C(F)(F)F, the activity coefficient was found to be 1.92 ± 0.13 (322.75 K); 1.9 ± 0.13 (333.25 K); 1.88 ± 0.13 (343.55 K); 1.85 ± 0.12 (354.15 K); 1.84 ± 0.12 (364.65 K).

Take `CCCCCC` [hexane] + CCCC[N+](C)(C)C.O=S(=O)([N-]S(=O)(=O)C(F)(F)F)C(F)(F)F: the activity coefficient runs as follows: (301.85 K) 19.4 ± 1.3; (312.35 K) 18.1 ± 1.2; (322.85 K) 17.6 ± 1.2; (333.35 K) 16.3 ± 1.1.

With `CO` [methanol] + CCCC[N+](C)(C)C.O=S(=O)([N-]S(=O)(=O)C(F)(F)F)C(F)(F)F, the activity coefficient runs as follows: (303.95 K) 1.55 ± 0.1; (312.05 K) 1.42 ± 0.09; (333.25 K) 1.15 ± 0.07; (343.65 K) 1.02 ± 0.06.

With `CCCC(=O)OC` [methyl butanoate] + CCCC[N+](C)(C)C.O=S(=O)([N-]S(=O)(=O)C(F)(F)F)C(F)(F)F, the activity coefficient (311.65 K) was 1.31 ± 0.09, the activity coefficient (333.15 K) is 1.26 ± 0.08 and the activity coefficient (364.45 K) stood at 1.2 ± 0.08.

`CCCCCCC(=O)OC` [methyl heptanoate] + CCCC[N+](C)(C)C.O=S(=O)([N-]S(=O)(=O)C(F)(F)F)C(F)(F)F: the activity coefficient runs as follows: (343.55 K) 3.18 ± 0.22; (354.05 K) 3.01 ± 0.2; (364.55 K) 2.81 ± 0.19; (374.95 K) 2.64 ± 0.18; (385.45 K) 2.43 ± 0.17.

As for `CCCCCC(=O)OC` [methyl hexanoate] + CCCC[N+](C)(C)C.O=S(=O)([N-]S(=O)(=O)C(F)(F)F)C(F)(F)F, the activity coefficient (343.65 K) stood at 2.43 ± 0.17, the activity coefficient (354.05 K) is 2.33 ± 0.16, the activity coefficient (364.55 K) is 2.19 ± 0.15 and the activity coefficient (374.95 K) was found to be 2.08 ± 0.14.

As to `CCCCC(=O)OC` [methyl pentanoate] + CCCC[N+](C)(C)C.O=S(=O)([N-]S(=O)(=O)C(F)(F)F)C(F)(F)F, the activity coefficient runs as follows: (322.75 K) 1.66 ± 0.11; (333.15 K) 1.63 ± 0.11; (364.55 K) 1.44 ± 0.09; (374.95 K) 1.33 ± 0.09.

Turning to `CCC(=O)OC` [methyl propanoate] + CCCC[N+](C)(C)C.O=S(=O)([N-]S(=O)(=O)C(F)(F)F)C(F)(F)F, the activity coefficient reads like this: (311.65 K) 0.94 ± 0.06; (333.15 K) 0.92 ± 0.06; (343.75 K) 0.91 ± 0.06.

On to `CCCCCCCCC` [nonane] + CCCC[N+](C)(C)C.O=S(=O)([N-]S(=O)(=O)C(F)(F)F)C(F)(F)F, for which the activity coefficient was determined as 67.5 ± 4.6 (301.65 K); 59.8 ± 4.1 (312.15 K); 52.6 ± 3.6 (322.75 K); 47.3 ± 3.2 (333.25 K); 43.2 ± 3 (343.65 K); 39 ± 2.7 (354.05 K). In addition, the activity coefficient runs as follows: (364.55 K) 36 ± 2.5; (374.95 K) 32.3 ± 2.2.

`C=CCCCCCC` [oct-1-ene] + CCCC[N+](C)(C)C.O=S(=O)([N-]S(=O)(=O)C(F)(F)F)C(F)(F)F: the activity coefficient stood at 22.9 ± 1.6 (306.75 K); 22 ± 1.5 (312.98 K); 20.4 ± 1.4 (322.55 K); 19 ± 1.3 (333.25 K); 17.2 ± 1.2 (343.65 K); 16.2 ± 1.1 (354.05 K). In addition, the activity coefficient (364.55 K) was found to be 15.1 ± 1.

Turning to `CCCCCCCC=O` [octanal] + CCCC[N+](C)(C)C.O=S(=O)([N-]S(=O)(=O)C(F)(F)F)C(F)(F)F, the activity coefficient runs as follows: (364.64 K) 3.53 ± 0.24; (374.95 K) 3.48 ± 0.24; (385.45 K) 3.44 ± 0.23; (395.95 K) 3.37 ± 0.23.

For `CCCCCCCC` [octane] + CCCC[N+](C)(C)C.O=S(=O)([N-]S(=O)(=O)C(F)(F)F)C(F)(F)F, the activity coefficient is 45.4 ± 3.1 (301.62 K), 41 ± 2.8 (312.15 K), 37.2 ± 2.5 (322.75 K) and 34.1 ± 2.3 (333.25 K).

For `CCCCCO` [pentan-1-ol] + CCCC[N+](C)(C)C.O=S(=O)([N-]S(=O)(=O)C(F)(F)F)C(F)(F)F, the activity coefficient (322.85 K) is 3.85 ± 0.26; the activity coefficient (333.15 K) turned out to be 3.39 ± 0.23; the activity coefficient (343.65 K) is 3.01 ± 0.2; the activity coefficient (354.05 K) came to 2.72 ± 0.19; the activity coefficient (364.45 K) came out at 2.45 ± 0.17.

On to `CCCCC=O` [pentanal] + CCCC[N+](C)(C)C.O=S(=O)([N-]S(=O)(=O)C(F)(F)F)C(F)(F)F, for which the activity coefficient (301.75 K) stood at 1.71 ± 0.11; the activity coefficient (312.25 K) amounted to 1.65 ± 0.11; the activity coefficient (322.75 K) turned out to be 1.62 ± 0.11; the activity coefficient (333.25 K) turned out to be 1.57 ± 0.1; the activity coefficient (343.55 K) came to 1.5 ± 0.1; the activity coefficient (354.15 K) was 1.46 ± 0.1.

Take `CCCCC` [pentane] + CCCC[N+](C)(C)C.O=S(=O)([N-]S(=O)(=O)C(F)(F)F)C(F)(F)F: the activity coefficient runs as follows: (301.85 K) 13.7 ± 0.93; (322.85 K) 13.9 ± 0.95.

Turning to `CCCCCc1ccccc1` [pentylbenzene] + CCCC[N+](C)(C)C.O=S(=O)([N-]S(=O)(=O)C(F)(F)F)C(F)(F)F, the activity coefficient is, setting by setting: (354.05 K) 7.92 ± 0.54; (364.45 K) 7.69 ± 0.52; (374.95 K) 7.36 ± 0.5; (385.45 K) 7.07 ± 0.48.
